Columns and labels:
paresis/paralysis = conditions: immediate or sustained release formulations; earlier application; cited from earlier work
[1] = test system: central pain in MS patients; conditions: intravenous 1.0 mg/ml morphine in physiological saline, response only after high doses; cited from earlier work
[2] = test system: MS, Lou Gherig's Disease and Parkinson's Disease; conditions: in vivo; cited from earlier work
[3] = test system: paresis/paralysis of the tongue, larynx, pharynx, esophagus, urinary bladder sphincter, muscles of the lumbar and lumbo-sacral spine and of the pelvis and …; test: Opiate treatment of dogs with neuropathic paresis/paralysis (UROS/OPS case studies); conditions: dog, in vivo
Source text: In order to clinically diagnose and/or evaluate the effectiveness of a dose of an anti-opiopathic active agent or formulation, over time, when being used to treat an opiopathic ailment, the following grading protocol can be employed to quantify and document function of the target muscle(s) and/or organ(s).
In grading the evaluations, an organ is considered to be neurologically normal when there is no neuropathology affecting its function. Because in most cases an organ can be clearly identified as having normal neurologic function, decreased neurologic function (paresis), or no neurologic function (paralysis), the documenting of the degree of remaining neurologic function of an organ lends itself to a simple grading system. An organ that functions normally and has no observable signs or symptoms is considered to be neurologically normal and receives the lowest score (0). An organ that has no function as a result of a neurologic/neurogenic ailment and is paralyzed, receives the highest score (10). An organ that has a partial loss of function (paresis) receives a score between (1) and (9), depending on the degree of function remaining. A decrease of the score of a function after administration of an anti-opiopathic active agent or formulation, indicates effectiveness roughly proportional to the relative decrease. […]

COc1ccc2c3c1O[C@H]1C(=O)CC[C@H]4[C@@H](C2)N(C)CC[C@]314 [hydrocodone]
reversal of paresis/paralysis (paresis/paralysis): successful reversal

CN1CC[C@]23c4c5ccc(O)c4O[C@H]2[C@@H](O)C=C[C@H]3[C@H]1C5.O=S(=O)(O)O [morphine sulfate]
reversal of paresis/paralysis (paresis/paralysis): successful reversal

CN1CC[C@]23c4c5ccc(O)c4O[C@H]2[C@@H](O)C=C[C@H]3[C@H]1C5 [morphine]
responsiveness of neuropathic (central) pain [1]: poorly responsive, but not totally unresponsive

O=C1CC[C@@]2(O)[C@H]3Cc4ccc(O)c5c4[C@@]2(CCN3CC2CC2)[C@H]1O5 [naltrexone]
treatment outcome [2]: limited success

COc1ccc2c3c1O[C@H]1C(=O)CC[C@@]4(O)[C@@H](C2)N(C)CC[C@]314 [oxycodone]
reversing paresis/paralysis in the larynx [3]: effective
treating urinary bladder sphincter paresis/paralysis [3]: effective
reversal of paresis/paralysis (paresis/paralysis): successful reversal

From patent publication US20070232638A1, “Opiopathies” (priority 2006, published 2007)
